Source: patent US20230021647A1, “METHOD OF TREATING A PATIENT INFECTED WITH A CORONAVIRUS AND HAVING A BASELINE LEVEL OF CRP BELOW 150 MG/L” (Theravance Biopharma R&D IP, LLC, priority 2021, published 2023)
Marks after values point to notes of the source that are not given here.

Key:
Format in all cases: in vivo, human
[1] = system: acute lung injury associated with COVID-19; assay: Phase 2 study Part 2, 3 mg vs placebo in hospitalized COVID-19 patients; details: for time to recovery, median: placebo 11
Experimental: Eligible subjects were stratified by age (≤60 vs >60 years) and concurrent use of antiviral medications (e.g., remdesivir, lopinavir, chloroquine) at baseline. […] Approximately 20% of participants were enrolled with a baseline clinical status score of six (NIPPV or high flow oxygen device) based on the 8-point ordinal scale (Table 13).
The study drug was administered at 3 mg once-daily in a single dose with an additional 3 mg loading dose on day 1, for up to 7 days or until discharge from the hospital, whichever was earlier. Subjects were followed for up to 28 days or until death, whichever was earlier.
Matching placebo was administered once daily for up to 7 days, via inhalation using a vibrating mesh nebulizer.
In Part 2, the primary endpoint was the number of RFDs from randomization through Day 28. Secondary Endpoints were: change from baseline in SaO2/FiO2 ratio on Day 7, proportion of subjects in each category of the 8-point clinical status scale on Days 7, 14, 21 and 28, and proportion of subjects alive and respiratory failure-free on Day 28. […] Additional exploratory endpoints may include: change from baseline in SaO2/FiO2 ratio in mmHg on Day 7, number of VFDs from randomization to Day 28, proportion of subjects with a SaO2/FiO2 ratio >300 on Days 5 and 7, proportion of subjects in each category of the 6-point clinical status scale on Days 7, 14, 21 and 28, proportion of subjects in each category of vital status (death, discharge, hospitalized) on Days 7, 14, 21 and 28, proportion of subjects with an oxygen saturation >90% on room air, proportion of subjects with fever (>37° C. oral or equivalent), chest imaging (when done for clinical care reasons), biomarkers including: nasal SARS-CoV-2 viral load. The safety endpoints were: change from baseline in vital signs and clinical laboratory results, and incidence and severity of TEAEs. The PK endpoints were population PK parameters for compound 1.
The primary endpoint was the number of respiratory failure-free days (RFDs) from randomization through Day 28. A RFD was defined as a day that a subject is alive and not requiring the use of invasive mechanical ventilation, non-invasive positive pressure ventilation, high-flow oxygen devices, or oxygen supplementation from randomization through Day 28. A clinical status score of <4 (Table 13) was equivalent to a respiratory failure-free day. The number of RFDs was 0 for subjects who use respiratory support for 28 days or longer, or for subjects who died on or before Day 28.
Treatment comparisons were performed using a Van Elteren test (a stratified Wilcoxon rank sum test) adjusting for stratification factors. Treatment difference were summarized based on median of RFD between compound 1 and placebo. Additional prognostic baseline covariates (e.g., comorbidities) were included in the sensitivity analyses.
For SaO2/FiO2, treatment comparisons versus placebo were conducted using a mixed-model repeated measures (MMRM) model. The model included fixed effects for randomized treatment group, study day (Day 7, 14, 21 and 28), treatment group by study day interaction, baseline SaO2/FiO2 ratio, treatment group by baseline SaO2/FiO2 ratio interaction, and stratification factors (baseline age group ≤60 vs >60 years, and concurrent use of antiviral medication at baseline Yes vs. No). A random effect for subject was also included in the model. An unstructured covariance matrix was used to estimate covariance of within-patient scores. The Kenward-Roger approximation was used to estimate denominator degrees of freedom. From this model, least squares means, standard errors, treatment differences in LS means, and 95% confidence intervals (CIs) were estimated.

[2] = system: acute lung injury associated with COVID-19; assay: Phase 2 study Part 1, multiple ascending dose in hospitalized COVID-19 patients; details: for subjects discharged from the hospital: by Day 21 (placebo 50%); for # Subjects Alive: Part 1, COVID-19 patients
[3] = Phase 1 SAD/MAD study of inhaled compound 1 in healthy subjects
Experimental: This was a phase 1, 2-part, double-blind, randomized, placebo controlled, sponsor-open, SAD (Part A) and MAD (Part B). Subjects participated in only 1 cohort in only 1 study part.
Part A (SAD) consisted of three (3) cohorts of 8 healthy subjects (6 active and 2 placebo). In each cohort, subjects received a single inhaled dose of compound 1 or placebo. […] Cardiodynamic monitoring via Holter monitors was conducted pre-dose and for at least 24 hours following dosing on Day 1 in each cohort, with rest periods for cardiodynamic electrocardiogram (ECG) extractions time matched to the PK sampling time points.
Part B (MAD) consisted of three (3) cohorts of 10 healthy subjects (8 active and 2 placebo). In each cohort, subjects received inhaled doses once daily (QD) for 7 days. […] Blood samples for PK assessment were also collected pre-dose on the morning of Days 3 through 6. Cardiodynamic monitoring via Holter monitors may be conducted pre-dose on Day 1 and pre-dose and for at least 24 hours following dosing on the morning of Day 7 in each cohort with rest periods for cardiodynamic ECG extractions time matched to the PK sampling time points.
In Parts A and B, safety data (i.e., physical examinations, vital signs, 12-lead safety ECGs, spirometry, clinical laboratory tests, and adverse events [AEs]) were assessed throughout the study; and blood and urine samples were collected for safety assessments. All subjects who received at least one dose of study drug (including subjects who terminated the study early) returned to the CRU 7 (±2) days after the last study drug administration for follow-up procedures, and to determine if any AEs have occurred since the last study visit.
In Part B, subjects received inhaled doses QD for 7 days using a nebulizer device.
Morning doses on Days 1 and 7 were administered under fasting conditions due to cardiodynamic monitoring. On all other times, doses were administered at least 30 minutes after completion of a meal or snack. Hour 0 was defined as the beginning of inhalation in each morning dose administration.

[4] = Part 1, 1 mg QD inhaled, Day 28
[5] = Part 1, 3 mg QD inhaled, Day 28
[6] = Part 1, 10 mg QD inhaled, Day 28
[7] = single and multiple inhaled doses

## CCc1cc(O)ccc1-c1ccc2c(-c3nc4c([nH]3)CN(C(C)C)[C@H](C(=O)N3CC(N(C)C)C3)C4)n[nH]c2c1 [Compound 1, (S)-(3-(dimethylamino)azetidin-1-yl)(2-(6-(2-ethyl-4-hydroxyphenyl)-1H-indazol-3-yl)-5-isopropyl-4,5,6,7-tetrahydro-3H-imidazo[4,5-c]pyridin-6-yl)methanone]
[1]; Part 2
  plasma exposure: low
  tolerability: well-tolerated
[1]; Part 2, placebo 2.0%
  serious infections, patients: 1.0%
[1]; Part 2, placebo 4.9%
  venous thromboembolism, patients: none
[1]; Part 2, placebo 7.8%
  adverse events of liver abnormalities or disease, patients: 9.7%
[1]; Part 2, placebo 13 (12.7%)
  patients discontinued from study, withdrawal for adverse event: 8 (7.8%) n (%)
[1]; Part 2, placebo 15.7%
  serious adverse events, patients: 9.7%
[1]; Part 2, placebo 41.2%
  adverse events, patients: 34.0%
[1]; Part 2 ITT
  secondary endpoints vs placebo: change in SaO2/FiO2 at Day 7, 8-point Clinical Status, alive and respiratory failure-free at Day 28: no difference
  time to recovery, median: 10 days
[1]; Part 2 ITT vs placebo, p=0.08
  28-day all-cause mortality HR: 0.42
[1]; Part 2 ITT vs placebo, p=0.12
  time to recovery HR: 1.27
[1]; Part 2 ITT, 3 mg QD, placebo 21, p=0.61
  RFDs from randomization through Day 28, median: 21 days
[1]; Part 2 ITT, placebo 13
  28-day all-cause mortality, total number of deaths: 6
[1]; Part 2 post-hoc, baseline CRP <150 mg/L vs placebo, p=0.009
  28-day all-cause mortality HR: 0.097
[1]; Part 2 post-hoc, baseline CRP <150 mg/L vs placebo, p=0.02
  time to recovery HR: 1.48
[1]; Part 2 post-hoc, baseline CRP <150 mg/L, placebo 9
  28-day all-cause mortality, total number of deaths: 1
[1]; Part 2 post-hoc, baseline CRP <150 mg/L
  time to recovery, median: 10 days
[1]; Part 2 post-hoc, baseline CRP >150 mg/L (n=30)
  time to recovery or 28-day all-cause mortality vs placebo: no difference
[2]; Part 1, 1 mg
  Still in Hospital at Day 28: 0 subjects (%)
[2]; Part 1, 1 mg QD inhaled
  Died (All-Cause Mortality): 1 (16.7%) subjects (%)
[2]; [4]
  # Subjects Respiratory Failure-Free: 5 (83.3%) subjects (%)
  Proportion of Subjects Alive and Respiratory Failure-free: 5 (83.3%) subjects (%)
[2]; Part 1, 1 mg group
  deaths observed: one
[2]; Part 1, 1 mg, Day 7
  Hospital Discharge: 0 subjects (%)
[2]; Part 1, 1 mg, Day 14
  Hospital Discharge: 2 (33.3%) subjects (%)
[2]; Part 1, 1 mg, Day 21
  Hospital Discharge: 3 (50.0%) subjects (%)
[2]; Part 1, 1 mg, Day 28
  Clinical Status 1-Not hospitalized, no limitations on activities: 5 (83.3%) subjects (%)
  Clinical Status 2-Not hospitalized, but with limitations on activities and/or requiring home oxygen: 0 subjects (%)
  Clinical Status 3-Hospitalized, not requiring supplemental oxygen, and no longer requiring ongoing medical care: 0 subjects (%)
  Clinical Status 4-Hospitalized, not requiring supplemental oxygen, but requiring ongoing medical care: 0 subjects (%)
  Clinical Status 5-Hospitalized, requiring supplemental oxygen: 0 subjects (%)
  Clinical Status 6-Hospitalized, on non-invasive ventilation or high-flow oxygen devices: 0 subjects (%)
  Clinical Status 7-Hospitalized, on invasive mechanical ventilation or extracorporeal membrane oxygenation: 0 subjects (%)
  Clinical Status 8-Death: 1 (16.7%) subjects (%)
  Hospital Discharge: 5 (83.3%) subjects (%)
[2]; Part 1, 3 mg
  Still in Hospital at Day 28: 0 subjects (%)
  subjects discharged from the hospital: 86%
[2]; Part 1, 3 mg QD inhaled
  Died (All-Cause Mortality): 0 subjects (%)
[2]; [5]
  # Subjects Respiratory Failure-Free: 6 (85.7%)* subjects (%)
  Proportion of Subjects Alive and Respiratory Failure-free: 6 (85.7%)* subjects (%)
[2]; Part 1, 3 mg, Day 7
  Hospital Discharge: 1 (14.3%) subjects (%)
[2]; Part 1, 3 mg, Day 14
  Hospital Discharge: 2 (28.6%) subjects (%)
[2]; Part 1, 3 mg, Day 21
  Hospital Discharge: 6 (85.7%) subjects (%)
[2]; Part 1, 3 mg, Day 28
  Clinical Status 1-Not hospitalized, no limitations on activities: 5 (83.3%) subjects (%)
  Clinical Status 2-Not hospitalized, but with limitations on activities and/or requiring home oxygen: 0 subjects (%)
  Clinical Status 3-Hospitalized, not requiring supplemental oxygen, and no longer requiring ongoing medical care: 0 subjects (%)
  Clinical Status 4-Hospitalized, not requiring supplemental oxygen, but requiring ongoing medical care: 1 (16.7%) subjects (%)
  Clinical Status 5-Hospitalized, requiring supplemental oxygen: 0 subjects (%)
  Clinical Status 6-Hospitalized, on non-invasive ventilation or high-flow oxygen devices: 0 subjects (%)
  Clinical Status 7-Hospitalized, on invasive mechanical ventilation or extracorporeal membrane oxygenation: 0 subjects (%)
  Clinical Status 8-Death: 0 subjects (%)
  Hospital Discharge: 7 (100%) subjects (%)
[2]; Part 1, 10 mg
  Still in Hospital at Day 28: 0 subjects (%)
  subjects discharged from the hospital: 100%
[2]; Part 1, 10 mg QD inhaled
  Died (All-Cause Mortality): 0 subjects (%)
[2]; [6]
  # Subjects Respiratory Failure-Free: 6 (100.0%) subjects (%)
  Proportion of Subjects Alive and Respiratory Failure-free: 6 (100.0%) subjects (%)
[2]; Part 1, 10 mg, Day 7
  Hospital Discharge: 0 subjects (%)
[2]; Part 1, 10 mg, Day 14
  Hospital Discharge: 2 (33.3%) subjects (%)
[2]; Part 1, 10 mg, Day 21
  Hospital Discharge: 6 (100%) subjects (%)
[2]; Part 1, 10 mg, Day 28
  Clinical Status 1-Not hospitalized, no limitations on activities: 5 (83.3%) subjects (%)
  Clinical Status 2-Not hospitalized, but with limitations on activities and/or requiring home oxygen: 1 (16.7%) subjects (%)
  Clinical Status 3-Hospitalized, not requiring supplemental oxygen, and no longer requiring ongoing medical care: 0 subjects (%)
  Clinical Status 4-Hospitalized, not requiring supplemental oxygen, but requiring ongoing medical care: 0 subjects (%)
  Clinical Status 5-Hospitalized, requiring supplemental oxygen: 0 subjects (%)
  Clinical Status 6-Hospitalized, on non-invasive ventilation or high-flow oxygen devices: 0 subjects (%)
  Clinical Status 7-Hospitalized, on invasive mechanical ventilation or extracorporeal membrane oxygenation: 0 subjects (%)
  Clinical Status 8-Death: 0 subjects (%)
  Hospital Discharge: 6 (100%) subjects (%)
[2]; 1 mg QD inhaled, Day 28
  # Subjects Alive: 5 (83.3%) subjects (%)
[2]; 3 mg QD inhaled, Day 28
  # Subjects Alive: 7 (100.0%)* subjects (%)
[2]; 10 mg QD inhaled, Day 28
  # Subjects Alive: 6 (100.0%) subjects (%)
[2]; Part 1, all compound 1 groups
  trend vs placebo in oxygenation, clinical status, mortality, respiratory-failure free, time to discharge, Borg Dyspnea Score: positive trend
[2]; Part 1, mostly 3 mg and 10 mg doses
  trend in reduction of inflammation markers (hsCRP, IFN-g, IL-6, IP-10) and RAGE: positive trend
[3]; 1 mg QD inhaled, Day 1
  AUC0-24: 18.42 ng·h/mL
[3]; 1 mg QD inhaled, Day 7
  Cmax: 5.699 ng/mL
[3]; [7]
  Tmax: approximately 1 hour
  terminal elimination half-life: approximately 24 hours
[3]; single inhaled dose 3 mg, mean (SD)
  t1/2: 24.73 (2.802) hr
